Results as given in US20170000902A1, “EGFR-TARGETED NANOPARTICLES” (CALIFORNIA INSTITUTE OF TECHNOLOGY, priority 2014, published 2017).

Test system: EGFR mRNA
Test: siEGFR knock down of EGFR mRNA expression
Type: cell-based
Settings: 50 picomolar concentration of siRNA; expression knocked down to this level
Excerpt: Nanoparticles were designed to specifically target EGFR-positive non-small cell lung cancer (NSCLC) cells and deliver siRNA to hinder EGFR expression. The nanoparticles have 4 primary components (see FIG. 1): • 1. A biocompatible cationic mucic acid polymer (cMAP) that encapsulates siRNA with a charge ratio (+/−) of 1; • 2. 5-nitrophenyl boronic acid-mPEG (5-nPBA-mPEG), which binds to cMAP through boronic acids' interaction with diols present on cMAP, to form a coating of methoxy-polyethylene glycol (mPEG) in order to ensure particle stability in serum; • 3. Cetuximab, the targeting agent for the particle, also attached to cMAP through a 5-nitrophenyl boronic acid-PEG entity; and • 4. siRNA against EGFR (siEGFR), able to knock down EGFR mRNA expression to 20% at a 50 picomolar concentration (see SEQ ID NO: 1). The resulting nanoparticles are cetuximab-conjugated cMAP-siEGFR nanoparticles.

siEGFR: siRNA against EGFR, SEQ ID NO: 1 bound to SEQ ID NO: 2 (chain 1 UAAUUUCCAAAUUCCCAAGGAC; chain 2 CCUUGGGAAUUUGGAAAUUAUA; listed as RNA, chemistry not given here)
EGFR mRNA expression after knock down: 20%
